Results published in patent US7414058B2, “Adenosine A2a receptor antagonists for the treatment of extra-pyramidal syndrome and other movement disorders” (Schering Corporation, priority 2002, dated 2008).

Tested on: haloperidol-induced EPS in Cebus apella monkeys
Experiment: Haloperidol-induced EPS in sensitized Cebus apella monkeys
Assay type: in vivo
Details: for monkeys in which onset of EPS was prevented: group of seven monkeys
Procedure: A more complete understanding of the invention may be obtained by reading the following description in conjunction with the appended figures relating to haloperidol-induced EPS in Cebus apella monkeys.
Compound A was administered orally (p.o.) at doses of 0.3-30 mg/kg, in conjunction with haloperidol. The studies were conducted using a within-subjects design such that each monkey received all 6 treatments (vehicle and 5 doses of Compound A) in a crossover, balanced design.

[1] = 1 mg/kg p.o., haloperidol 0.3 mg/kg p.o.
[2] = 10 and 30 mg/kg p.o., haloperidol 0.3 mg/kg p.o.

SMILES: Nc1nc2c(cnn2CCN2CCN(c3ccc(F)cc3F)CC2)c2nc(-c3ccco3)nn12 [Compound A]
- monkeys in which onset of EPS was prevented [1]: one
- delay of the onset of EPS [1]: 1 h
- monkeys in which onset of EPS was prevented (3 mg/kg p.o., haloperidol 0.3 mg/kg p.o.): two
- delay of the onset of EPS (3 mg/kg p.o., in the remaining monkeys, haloperidol 0.3 mg/kg p.o.): ~2 h
- monkeys in which onset of EPS was prevented [2]: three
- delay of the onset of EPS (average) [2]: 2.3 to 2.9 h
- maximum EPS score (Compound A 0.3-30 mg/kg p.o. with haloperidol 0.3 mg/kg p.o., FIG. 1A, seven monkeys, crossover): dose-dependent reduction
- delay in the onset of EPS (dose dependence) (Compound A 0.3-30 mg/kg p.o. with haloperidol 0.3 mg/kg p.o., FIG. 1B, vs vehicle): dose-dependent delay
